Test system: Plasmodium berghei
Test: Luciferase/luciferin-expressing antifolate-resistant parasites were used to infect a culture of HepG2 cells that were pre-incubated with compounds. Infected hepatocytes emit light due to the luciferase reaction. Assay results are presented as the percent inhibition of light emission compared to control. […]
Assay type: functional
Conditions: sporozoite; for IC90: read-out: LUCIFERASE INFECTION ASSAY - IC90

Structure (SMILES)	IC90	further results
CCC1CCCCN1CC(=O)Nc1cc(C)nn1-c1nc(C)cc(C)n1 (centres undefined)	> 10 µM	IC50 (HEPG2TOX_HILL_SLOPE 4.29, HEPG2TOX_R_SQUARED 0.929, read-out: LUCIFERASE INFECTION ASSAY - IC50): > 10 µM
Nc1nc(Cl)cc(NCCc2ccccc2)n1	> 13.3 µM	IC50 (HEPG2TOX_HILL_SLOPE 4.29, HEPG2TOX_R_SQUARED 0.965, PBLUC_HILL_SLOPE 3.15, PBLUC_R_SQUARED 0.0969, read-out: LUCIFERASE INFECTION ASSAY - IC50): 10.4 µM
COc1ccc(OC)c(/C=C/C(=O)N2C(=O)c3cccc(N)c3C2=O)c1	> 10 µM	IC50 (HEPG2TOX_HILL_SLOPE 4.32, HEPG2TOX_R_SQUARED 0.934, PBLUC_HILL_SLOPE 15.3, PBLUC_R_SQUARED 0.377, read-out: LUCIFERASE INFECTION ASSAY - IC50): 9.46 µM
CCCCNc1nc(-c2ccccc2)c(C(=O)OCC)cc1C#N	9.48 µM	IC50 (HEPG2TOX_HILL_SLOPE 4.31, HEPG2TOX_R_SQUARED 0.989, PBLUC_HILL_SLOPE 14.5, PBLUC_R_SQUARED 0.263, read-out: LUCIFERASE INFECTION ASSAY - IC50): 8.14 µM
N#C/C(=C\C=C\c1ccccc1[N+](=O)[O-])C(=O)NC1CCCCC1	4.14 µM	IC50 (HEPG2TOX_HILL_SLOPE 4.42, HEPG2TOX_R_SQUARED 0.954, PBLUC_HILL_SLOPE 12.2, PBLUC_R_SQUARED 0.458, read-out: LUCIFERASE INFECTION ASSAY - IC50): 3.46 µM
COc1ccc(C(=O)Nc2nc3ccccc3[nH]2)cc1	> 10 µM	IC50 (HEPG2TOX_HILL_SLOPE 4.46, HEPG2TOX_R_SQUARED 0.552, PBLUC_HILL_SLOPE 2.95, PBLUC_R_SQUARED 0.511, read-out: LUCIFERASE INFECTION ASSAY - IC50): 7.58 µM
Cn1c(-c2ccccc2)nc2cnc(-c3ccc(N)nc3)cc21	> 10 µM	IC50 (HEPG2TOX_HILL_SLOPE 4.2, HEPG2TOX_R_SQUARED 0.898, PBLUC_HILL_SLOPE 2.04, PBLUC_R_SQUARED 0.316, read-out: LUCIFERASE INFECTION ASSAY - IC50): 5.32 µM
O=C(O)c1c(CN2CCN(c3ccccc3)CC2)c(O)c2ccccc2c1O	8.28 µM	IC50 (HEPG2TOX_HILL_SLOPE 4.36, HEPG2TOX_R_SQUARED 0.83, PBLUC_HILL_SLOPE 4.96, PBLUC_R_SQUARED 0.0239, read-out: LUCIFERASE INFECTION ASSAY - IC50): 5.31 µM
O=C(CNc1cccc(S(=O)(=O)N2CCCCC2)c1)NC(=O)NC1CCCC1	> 10 µM	IC50 (HEPG2TOX_HILL_SLOPE 4.49, HEPG2TOX_R_SQUARED 0.873, PBLUC_HILL_SLOPE 2.27, PBLUC_R_SQUARED 0.353, read-out: LUCIFERASE INFECTION ASSAY - IC50): 7.49 µM
CN1CCN(c2ccc(-c3cn4c(-c5ccc6ncccc6c5)cnc4cn3)cn2)CC1	3.03 µM	IC50 (HEPG2TOX_HILL_SLOPE 4.41, HEPG2TOX_R_SQUARED 0.745, PBLUC_HILL_SLOPE 17.7, PBLUC_R_SQUARED 0.338, read-out: LUCIFERASE INFECTION ASSAY - IC50): 2.68 µM
O=C1C(Cl)=C(OC(CO)CO)C(=O)c2ccccc21	1.49 µM	IC50 (HEPG2TOX_HILL_SLOPE 4.19, HEPG2TOX_R_SQUARED 0.978, PBLUC_HILL_SLOPE 3.44, PBLUC_R_SQUARED 0.808, read-out: LUCIFERASE INFECTION ASSAY - IC50): 0.784 µM
CC(=O)Nc1ccc(Nc2cc3c(cn2)nc(-c2ccccc2)n3C)cc1	3.77 µM	IC50 (HEPG2TOX_HILL_SLOPE 4.43, HEPG2TOX_R_SQUARED 0.848, PBLUC_HILL_SLOPE 16.8, PBLUC_R_SQUARED 0.556, read-out: LUCIFERASE INFECTION ASSAY - IC50): 3.31 µM
O=C(NN=CC1C(=O)N(c2ccccc2C(F)(F)F)C(=O)c2ccccc21)c1ccc(F)cc1 (centres undefined)	> 10 µM	IC50 (HEPG2TOX_HILL_SLOPE 4.25, HEPG2TOX_R_SQUARED 0.761, PBLUC_HILL_SLOPE 4.13, PBLUC_R_SQUARED 0.557, read-out: LUCIFERASE INFECTION ASSAY - IC50): 5.89 µM
CCS(=O)(=O)c1ncc(Cl)c(C(=O)Nc2ccccc2C(F)(F)F)n1	4.41 µM	IC50 (HEPG2TOX_HILL_SLOPE 4.53, HEPG2TOX_R_SQUARED 0.715, PBLUC_HILL_SLOPE 8.07, PBLUC_R_SQUARED 0.684, read-out: LUCIFERASE INFECTION ASSAY - IC50): 3.36 µM
COc1cc(C(=O)NNC(=O)c2nn(-c3ccccc3)cc2O)cc(OC)c1OC	> 10 µM	IC50 (HEPG2TOX_HILL_SLOPE 4.57, HEPG2TOX_R_SQUARED 0.844, PBLUC_HILL_SLOPE 7.94, PBLUC_R_SQUARED 0.6, read-out: LUCIFERASE INFECTION ASSAY - IC50): 8.48 µM
N#C/C(=C(\Oc1ccccc1)C(F)(F)F)c1ccccc1	10.9 µM	IC50 (HEPG2TOX_HILL_SLOPE 4.45, HEPG2TOX_R_SQUARED 0.985, PBLUC_HILL_SLOPE 11.8, PBLUC_R_SQUARED 0.682, read-out: LUCIFERASE INFECTION ASSAY - IC50): 9.07 µM

Structure (SMILES)	IC90	further results
CN1CCN(c2ccc(Cl)cc2NC(=O)Nc2cc(Cl)ccc2N2CCN(C)CC2)CC1	3.56 µM	IC50 (HEPG2TOX_HILL_SLOPE 4.19, HEPG2TOX_R_SQUARED 0.986, PBLUC_HILL_SLOPE 15.5, PBLUC_R_SQUARED 0.444, read-out: LUCIFERASE INFECTION ASSAY - IC50): 3.09 µM
Cc1cc(NCc2ccccn2)n2nc(C)c(-c3ccccc3Cl)c2n1	5.5 µM	IC50 (HEPG2TOX_HILL_SLOPE 4.48, HEPG2TOX_R_SQUARED 0.152, PBLUC_HILL_SLOPE 2.08, PBLUC_R_SQUARED 0.431, read-out: LUCIFERASE INFECTION ASSAY - IC50): 1.91 µM
CCN1C(=O)N(Cc2cccc(OC)c2)C(=O)C12CCN(C(C)CCc1c[nH]c3ccccc13)CC2 (centres undefined)	5.56 µM	IC50 (HEPG2TOX_HILL_SLOPE 4.28, HEPG2TOX_R_SQUARED 0.784, PBLUC_HILL_SLOPE 3.57, PBLUC_R_SQUARED 0.572, read-out: LUCIFERASE INFECTION ASSAY - IC50): 3 µM
CC1(C)C2CCC1(C)C(NC(=O)COc1ccc(Br)cc1Cl)C2 (centres undefined)	8.17 µM	IC50 (HEPG2TOX_HILL_SLOPE 4.37, HEPG2TOX_R_SQUARED 0.564, PBLUC_HILL_SLOPE 4.64, PBLUC_R_SQUARED 0.01, read-out: LUCIFERASE INFECTION ASSAY - IC50): 5.08 µM
Clc1cccc(Cl)c1/C=C/c1nc2ccccc2n1Cc1ccccc1	> 8.7 µM	IC50 (HEPG2TOX_HILL_SLOPE 4.4, HEPG2TOX_R_SQUARED 0.96, PBLUC_HILL_SLOPE 4.2, PBLUC_R_SQUARED 0.29, read-out: LUCIFERASE INFECTION ASSAY - IC50): 5.61 µM
CCOc1ccc(S(=O)(=O)Nc2cc3c4c(oc3c3ccccc23)CC(C)(C)CC4=O)cc1	6.15 µM	IC50 (HEPG2TOX_HILL_SLOPE 4.2, HEPG2TOX_R_SQUARED 0.972, PBLUC_HILL_SLOPE 5.12, PBLUC_R_SQUARED 0.622, read-out: LUCIFERASE INFECTION ASSAY - IC50): 4.01 µM
O=C(Cc1cccs1)Nc1nc2ccccc2nc1N1CCCC1	> 10 µM	IC50 (HEPG2TOX_HILL_SLOPE 4.38, HEPG2TOX_R_SQUARED 0.169, read-out: LUCIFERASE INFECTION ASSAY - IC50): > 10 µM
CCCn1c(C)cc(/C=C(\C#N)C(=O)Nc2c(C)cccc2C(C)C)c1C	2.35 µM	IC50 (HEPG2TOX_HILL_SLOPE 4.53, HEPG2TOX_R_SQUARED 0.804, PBLUC_HILL_SLOPE 3.44, PBLUC_R_SQUARED 0.565, read-out: LUCIFERASE INFECTION ASSAY - IC50): 1.24 µM
COc1ccc(C2=NN=C/C2=N\Nc2cc(C)cc(C)c2)cc1	4.13 µM	IC50 (HEPG2TOX_HILL_SLOPE 4.29, HEPG2TOX_R_SQUARED 0.94, PBLUC_HILL_SLOPE 14.3, PBLUC_R_SQUARED 0.412, read-out: LUCIFERASE INFECTION ASSAY - IC50): 3.54 µM
Oc1ccc(-c2cnc3cnc(-c4ccccc4Cl)cn23)cc1	4.1 µM	IC50 (HEPG2TOX_HILL_SLOPE 4.19, HEPG2TOX_R_SQUARED 0.981, PBLUC_HILL_SLOPE 3.43, PBLUC_R_SQUARED 0.853, read-out: LUCIFERASE INFECTION ASSAY - IC50): 2.16 µM
Cc1cc2ccccn2c1C(=O)c1nc(S(C)(=O)=O)ncc1Cl	> 10 µM	IC50 (HEPG2TOX_HILL_SLOPE 4.52, HEPG2TOX_R_SQUARED 0.995, PBLUC_HILL_SLOPE 10.9, PBLUC_R_SQUARED 0.162, read-out: LUCIFERASE INFECTION ASSAY - IC50): 8.19 µM
COC(=O)c1ccc(N2CCN(c3ccccc3Cl)CC2)nc1	> 9.95 µM	IC50 (HEPG2TOX_HILL_SLOPE 4.29, HEPG2TOX_R_SQUARED 0.95, PBLUC_HILL_SLOPE 9.99, PBLUC_R_SQUARED 0.342, read-out: LUCIFERASE INFECTION ASSAY - IC50): 8.41 µM
O=C1c2ccccc2C(O)(C#Cc2ccccc2)N1c1ccccc1 (centres undefined)	8.45 µM	IC50 (HEPG2TOX_HILL_SLOPE 4.52, HEPG2TOX_R_SQUARED 0.977, PBLUC_HILL_SLOPE 3.23, PBLUC_R_SQUARED 0.385, read-out: LUCIFERASE INFECTION ASSAY - IC50): 4.28 µM
Cc1cc(Br)ccc1OCC(=O)NC(C)c1ccccc1 (centres undefined)	> 9.48 µM	IC50 (HEPG2TOX_HILL_SLOPE 4.44, HEPG2TOX_R_SQUARED 0.285, read-out: LUCIFERASE INFECTION ASSAY - IC50): > 9.48 µM
O=C1OC(c2ccc(C(=O)c3ccccc3)cc2)=N/C1=C1\CCCCCN1	> 10 µM	IC50 (HEPG2TOX_HILL_SLOPE 4.29, HEPG2TOX_R_SQUARED 0.683, PBLUC_HILL_SLOPE 20.1, PBLUC_R_SQUARED 0.207, read-out: LUCIFERASE INFECTION ASSAY - IC50): 9.14 µM
O=C(Nc1ccccc1)N1CCc2nc(NCc3cccc(Oc4ccccc4)c3)ncc2C1	3.15 µM	IC50 (HEPG2TOX_HILL_SLOPE 4.26, HEPG2TOX_R_SQUARED 0.801, PBLUC_HILL_SLOPE 11.5, PBLUC_R_SQUARED 0.365, read-out: LUCIFERASE INFECTION ASSAY - IC50): 2.6 µM

Source: ChEMBL document CHEMBL4483862, “Open-source discovery of chemical leads for next-generation chemoprotective antimalarials” (2018)
